Results published in patent US5424396A, “Antimicrobial peptide and antimicrobial agent” (Morinaga Milk Industry Co., Ltd., priority 1991, dated 1995).

Test system: Escherichia coli
Test: Antimicrobial activity test: rate of inhibition of E. coli proliferation (turbidity)
Format: cell-based
Conditions: 16 hours at 37° C.
Procedure: One platinum loop was collected from a stock slant of Escherichia coli, streaked on a standard agar medium (manufactured by Nissui Pharmaceutical Co.) and incubated under aerobic conditions for 16 hours at 37° C., the colonies which grew on the surface of the standard agar medium were collected using a platinum loop, suspended in sterilized physiological saline solution, the turbidity was measured using a spectrophotometer (manufactured by Hitachi Manufacturing Co.) and adjusted to 0.1 (O.D.; 660 nm) and a pre-incubation solution was prepared.
Bactocasitone (manufactured by Difco Laboratory Co.) was dissolved at a concentration of 1% in purified water, the pH was adjusted to 7.0 with 1M sodium hydroxide, the solution was sterilized at 115° C. for 15 minutes and a basal medium (liquid medium) was prepared. […]
The percentages of the rate of inhibition of proliferation are not in weight (same hereinafter).

Trp-Gln-Trp-Arg (WQWR) [Sample No. 7]
inhibitory rate (rate of inhibition of proliferation) (added quantity 0.5 μM): 0% | inhibitory rate (rate of inhibition of proliferation) (added quantity 1 μM): 21% | inhibitory rate (rate of inhibition of proliferation) (added quantity 2 μM): 68% | inhibitory rate (rate of inhibition of proliferation) (added quantity 5 μM): 83% | inhibitory rate (rate of inhibition of proliferation) (added quantity 10 μM): 95% | inhibitory rate (rate of inhibition of proliferation) (added quantity 20 μM): 100% | inhibitory rate (rate of inhibition of proliferation) (added quantity 60 μM): 100% | inhibitory rate (rate of inhibition of proliferation) (added quantity 100 μM): 100% | inhibitory rate (rate of inhibition of proliferation) (added quantity 200 μM): 100%
